Test results: patent publication US20120232043A1, “LUBIPROSTONE FOR OBSTETRICAL OR GYNECOLOGICAL APPLICATIONS” (CEMAG, priority 2009, published 2012)

Tested on: women requesting early pregnancy termination (<64 days of amenorrhea)
Assay: Early pregnancy termination in women: oral mifepristone followed by oral lubiprostone
Format: in vivo
Details: twelve women, 200 mg mifepristone once orally, followed 24 hours later by oral lubiprostone 8 μg twice daily for 2 consecutive days
Protocol: Twelve women requesting early pregnancy termination (<64 days of amenorrhea) have received 200 mg mifepristone once, orally followed 24 hours later by the oral administration of lubiprostone (8 μg twice daily for 2 consecutive days). Efficacy rate (i.e. complete pregnancy termination, without need for surgical procedure) was […]. In one person, ovular fragments had to be removed at the uterine os with a forceps. Median bleeding time was 8 days. There was no specific adverse event except mild diarrhea in 3 subjects.

`CCCCC(F)(F)[C@@]1(O)CC[C@H]2[C@@H](CC(=O)[C@@H]2CCCCCCC(=O)O)O1` [lubiprostone, 7-[(2R,4aR,5R,7aR)-2-(1,1-difluoropentyl)-2-hydroxy-6-oxo-3,4,4a,5,7,7a-hexahydrocyclopenta[b]pyran-5-yl]heptanoic acid] was tested, and the “Efficacy rate (i.e. complete pregnancy termination, without need for surgical procedure)” value (<64 days of amenorrhea) was 97%, the “Adverse event: mild diarrhea (no other specific adverse event)” value was 3 subjects and the Median bleeding time was 8 days. For the same compound, the “Ovular fragments had to be removed at the uterine os with a forceps” value was “one”.
